Measurements reported in paper PMC9595134, “Novel pituitary actions of GnRH in teleost: The link between reproduction and feeding regulation” (Frontiers in Endocrinology, 2022).
Where a SMILES comes first, the peptide text is derived from it. [ ]: non-standard residue; d: D form. pGlu = O=C1CC[C@@H](C(=O)O)N1

How the values were obtained:
[1] = tested on: grass carp pituitary cells; test: qRT-PCR of reproductive hormone genes in pituitary cells; assay type: cell-based, grass carp (Ctenopharyngodon idellus)
Experimental: (§1) The preparation of grass carp pituitary cells was performed as mentioned above. After drug treatment, the total RNA of these cells was isolated by TRIzol reagent and reverse transcribed into cDNA with Hifair™ III 1st Strand cDNA Synthesis Kit. The transcript levels of several anorectic peptides (POMCb, CART2, UTS1, NMBa, NMBb, and Lepr) and reproductive genes (GtHα, LHβ, FSHβ, INHBa, SgII, DRD2) were detected by using an ABI 7500 quantitative real-time PCR (qRT-PCR) system (Biosystems, USA) (information of primers for target genes is listed in Supplementary Table S3 ). In this process, a serial gradient dilution of plasmid DNA of these genes was used as a standard for data calibration. The conditions of qRT-PCR were set to 10 min, 95°C, for pre-degeneration; 15 s, 95°C, for degeneration; 30 s, 55°C–60°C, for annealing; 30 s, 72°C, for extending; and 20 s, 82°C, for signal detection with 40 cycles. Finally, the melt curve obtained through each test was used to verify and check the reliability and specificity of the corresponding qRT-PCR.
(§2) The transcript level was detected using qRT-PCR by ABI 7500 software, while the data calibration of each reaction was performed through standard curves with the dynamic range of 10^5 and correlation coefficient >0.95. The transcript level of β-actin was used as an internal control, and target gene mRNA expression was normalized and calculated as a percentage of the mean value (as “% Ctrl”). Based on merging four to eight replicates (as mean ± SEM), the data were analyzed with a one-way ANOVA to differentiate the significant differences from other treatment experiments. The SPSS Statistics 26.0 software was used to do a Dunnett’s post-hoc test. […] The different letters represent a significant difference at p < 0.05 between groups.
To further verify the reproductive function of GnRHs, time- and dose-dependent tests were performed to detect GnRH2- or GnRH3-regulated GtHα, LHβ, FSHβ, INHBa, SgII, and DRD2 mRNA expression in grass carp pituitary cells. […] In the dose-dependent test, a continuous gradient dilution of GnRH2 (0.1–1,000 nM) or GnRH3 (0.1–1,000 nM) was incubated with grass carp pituitary cells for 24 h.
Figure 5 Regulation of reproductive hormone gene mRNA expression by GnRH2 and GnRH3 in grass carp pituitary cells. (A) Time-course experiment of grass carp GnRH2 (1 μM) and GnRH3 (1 μM) on GtHα, LHβ, FSHβ, INHBa, SgII, and DRD2 mRNA expression in grass carp pituitary cells. (B) Dose dependence of a 24-h treatment with increasing levels of GnRH2 and GnRH3 (0.1–1,000 nM) on GtHα, LHβ, FSHβ, INHBa, SgII, and DRD2 mRNA expression in grass carp pituitary cells. After drug treatment, the pituitary cells were extracted to total RNA, reversed transcribed, and used for RT-PCR to detect the target genes’ mRNA expression. […] The different letters represent a significant difference at p < 0.05 between groups (ANOVA followed by a Dunnett test).

[2] = tested on: grass carp pituitary cells; test: qRT-PCR of anorectic genes in pituitary cells; assay type: cell-based, grass carp (Ctenopharyngodon idellus)
Experimental: as §1, §2
To further verify the functional role of GnRH2 and GnRH3 on feeding regulation, time- and dose-dependent tests were performed to detect the effect of GnRH2 and GnRH3 on anorectic gene (POMCb, CART2, UTS1, NMBa, NMBb, and LEPR) mRNA expression. In the time-course test, the grass carp pituitary cells were incubated by GnRH2 or GnRH3 (1 μM) for 3, 6, 12, and 24 h, respectively. […] In the dose-dependent test, grass carp pituitary cells were incubated by the continuous gradient dilution of GnRH2 or GnRH3 (0.1–1,000 nM) for 24 h.
Figure 9 Regulation of feeding hormone gene mRNA expression by GnRH2 and GnRH3 in grass carp pituitary cells. (A) Time-course experiment of grass carp GnRH2 (1 μM) and GnRH3 (1 μM) on POMCb, CART2, UTS1, NMBa, NMBb, and LEPR mRNA expression in grass carp pituitary cells. (B) Dose dependence of a 24-h treatment with increasing levels of GnRH2 and GnRH3 (0.1–1,000 nM) on POMCb, CART2, UTS1, NMBa, NMBb, and LEPR mRNA expression in grass carp pituitary cells. […]

[3] = tested on: goldfish; parameters: method as in PMID 7507838, PMID 8045371; settings: sexually regressed animals, ref [34], [35]; cited from earlier work
[4] = tested on: pituitary; settings: teleost; ref [5], [10]; cited from earlier work
Description: Subsequently, GnRH2 had been firstly found in chicken so that this variant was also named as chicken GnRH (cGnRH) ([3]). In addition, the third GnRH variant (GnRH3) was an ubiquitous and unique subtype existing in fish ([3]), which was primitively discovered in salmon so that it was named as salmon GnRH (sGnRH) ([4]). Multiple GnRH variants (two or three forms) are present in all teleosts ([5]), but the receptor selectivity a ...

[5] = 1 μM, time-dependent, Figure 5A

CC(C)C[C@H](NC(=O)[C@H](Cc1c[nH]c2ccccc12)NC(=O)CNC(=O)[C@H](Cc1ccc(O)cc1)NC(=O)[C@H](CO)NC(=O)[C@H](Cc1c[nH]c2ccccc12)NC(=O)[C@H](Cc1c[nH]cn1)NC(=O)[C@@H]1CCC(=O)N1)C(=O)N1CCC[C@H]1C(=O)NCC(N)=O [GnRH3] ([pGlu]HWSYGWLPG-NH2)
effect on DRD2 mRNA expression, time course [1, 5]: inhibit
effect on GtHα, LHβ, FSHβ, INHBa, and SgII mRNA expression, time course [1, 5]: significantly induce
effect on DRD2 mRNA expression, dose test ([1]; 0.1–1,000 nM (all treated doses), 24 h, Figure 5B): significantly inhibit
effect on GtHα, LHβ, FSHβ, INHBa, and SgII mRNA expression, dose dependence ([1]; 0.1–1,000 nM, 24 h, dose-dependent, Figure 5B): significantly induce
effect on POMCb, CART2, UTS1, NMBa, NMBb, and LEPR mRNA expression, time course ([2]; 1 μM, 3, 6, 12, and 24 h, time-dependent, Figure 9A): significantly induce
effect on POMCb, CART2, UTS1, NMBa, NMBb, and LEPR mRNA expression, dose dependence ([2]; 0.1–1,000 nM, 24 h, dose-dependent, Figure 9B): significantly induce
LH-releasing activity [3]: potent LH-releasing activity
effect on LH and FSH secretion in the pituitary [4]: could stimulate
